Measurements taken from patent US20090036484A1, “Use of Unsaturated Quionoline or Naphtalene Derivatives as Medicaments” (AstraZeneca AB, priority 2004, published 2009).

Target: T1, recombinant human GR (Homo sapiens, UniProt P04150)
T1 construct: purchased Panvera/Invitrogen P2812 (kit P2893)
T1 sequence (P04150 1-777): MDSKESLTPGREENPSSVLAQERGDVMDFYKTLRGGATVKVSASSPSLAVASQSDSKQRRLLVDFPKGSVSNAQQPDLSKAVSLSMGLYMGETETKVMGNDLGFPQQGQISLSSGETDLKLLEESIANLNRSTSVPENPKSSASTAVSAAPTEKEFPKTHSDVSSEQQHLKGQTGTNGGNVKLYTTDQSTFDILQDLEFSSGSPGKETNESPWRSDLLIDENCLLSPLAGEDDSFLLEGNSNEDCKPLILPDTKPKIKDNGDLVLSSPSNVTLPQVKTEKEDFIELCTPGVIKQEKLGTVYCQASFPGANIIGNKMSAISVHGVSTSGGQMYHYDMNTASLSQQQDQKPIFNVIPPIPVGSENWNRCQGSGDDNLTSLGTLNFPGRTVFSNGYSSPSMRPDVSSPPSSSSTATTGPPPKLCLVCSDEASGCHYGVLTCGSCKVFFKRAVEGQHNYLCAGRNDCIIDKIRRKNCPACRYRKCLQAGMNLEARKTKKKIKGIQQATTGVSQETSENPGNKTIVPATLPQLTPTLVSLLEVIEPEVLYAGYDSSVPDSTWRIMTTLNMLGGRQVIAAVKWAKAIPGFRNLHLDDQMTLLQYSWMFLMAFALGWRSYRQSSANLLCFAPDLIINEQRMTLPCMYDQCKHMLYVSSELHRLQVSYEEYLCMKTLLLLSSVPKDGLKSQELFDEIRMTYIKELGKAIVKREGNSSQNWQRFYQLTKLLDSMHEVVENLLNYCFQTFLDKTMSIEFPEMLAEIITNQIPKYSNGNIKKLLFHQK
Assay: Human Glucocorticoid Receptor (GR) fluorescence polarization assay
Format: binding
Settings: GS Red tracer, 2 hours at room temperature
Protocol: Human Glucocorticoid Receptor (GR) Assay
The assay is based on a commercial kit from Panvera/Invitrogen (Part number P2893). The assay technology is fluorescence polarization. The kit utilises recombinant human GR (Panvera, Part number P2812), a Fluoromone™ labelled tracer (GS Red, Panvera, Part number P2894) and a Stabilizing Peptide 10× (Panvera, Part number P2815). The GR and Stabilizing Peptide reagents are stored at −70° C. while the GS Red is stored at −20° C. Also included in the kit are 1M DTT (Panvera, Part number P2325, stored at −20° C.) and GR Screening buffer 10× (Panvera, Part number P2814, stored at −70° C. initially but once thawed stored at room temperature). Avoid repeated freeze/thaws for all reagents. The GR Screening buffer 10× comprises 100 mM potassium phosphate, 200 mM sodium molybdate, 1 mM EDTA and 20% DMSO.
Test compounds (1 μL) and controls (1 μL) in 100% DMSO were added to black polystyrene 384-well plates (Greiner low volume black flat-bottom, part number 784076). 0% control was 100% DMSO and 100% control was 10 μM Dexamethasone. […] The plate was read in an Analyst plate reader (LJL Biosystems/Molecular Devices Corporation) or other similar plate reader capable of recording fluorescence polarization (excitation wavelength 530 nm, emission wavelength […] and a dichroic mirror at 561 nm). The IC50 values were calculated using XLfit model 205.

SMILES: CC1=CC(C)(C)N(Cc2ccc(Cl)cc2)c2ccccc21 [CAS120109-44-6]
- IC50: 240 nM
